Consider one sequence from patent US20140343324A1, “SYNTHETIC MATRIX FOR CONTROLLED CELL INGROWTH AND TISSUE REGENERATION” (Eidgenossische Technische Hochschule Zürich, priority 2001, published 2014).

The experiment relates to human foreskin fibroblasts (hFFs). In words: Three-dimensional cell invasion from hFF-fibrin clusters into PEG-based hydrogels. Particulars: compared with collagen type I derived GCRDGPQGIAGQDRCG
As for the experimental part: Near-confluent cultures of human foreskin fibroblasts (hFFs) were trypsinized, centrifuged and resuspended in 2% (m/v) fibrinogen from human plasma (Fluka, Switzerland) in sterile phosphate buffered solution (PBS) to a concentration of […]. To induce gelation of the hFF-fibrinogen suspension, thrombin (Sigma T-6884, Switzerland) and Ca^++ were added to final concentrations of 2 NIH units/mL and 2.5 mM, respectively, and rapidly mixed with the cell suspension. Prior to gelation, 2 μL droplets of this cell-fibrinogen precursor were gelled on microscope slides for ca. 15 min. at 37° C. The hFF-fibrin clusters were embedded inside 25 μl PEG-based hydrogels by placing three to four clusters into precursor solution prior to gelation. Such hFF-fibrin clusters embedded inside the PEG-based hydrogels were cultured serum-containing DMEM in the 12-well tissue culture plates for up to 30 days. Cell invasion from the cluster into the synthetic gel matrix was imaged and recorded with their center plane in focus. To quantify the penetration depth of the outgrowth, the area of the original hFF-fibrin cluster was measured in the center plane, as was the area of the hFF outgrowth, defined by the tips of the hFF branches in the center plane of focus. […]

Regarding “GCRDGPQGIWGQDRCG (Ac-GCRDGPQGIWGQDRCG-NH2; cysteine pairing not given here) [synthetic MMP substrate capable of forming a hydrogel by Michael-type addition]”, the “degradation of MMP substrate in hydrogel” value is on record as “degrades significantly faster”.
